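Five compound concentrations were applied to cells in 96-well plates for 48 hours; endpoints were derived by simple linear interpolation of the resulting dose-response curve. At the GI50, growth is halved.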 Activity calls are given as the source filed them. Cut-off read from the data, not from the text of the source: active = GI50 up to about 1.1 µM and inactive = higher.
Columns and labels:
Assay in all cases: NCI-60 cell line screen, 48 h
T47D = system: T47D
BT-549 = system: BT-549
Hs-578T = system: Hs-578T
M14 = system: M14
DU-145 = system: DU-145
MDA-MB-435 = system: MDA-MB-435

Measured: GI50

CCOC(=O)Cn1c(=O)ccn(COCCO)c1=O
inactive: T47D > 100 µM | BT-549 > 100 µM | Hs-578T > 100 µM | M14 > 100 µM | DU-145 > 100 µM | MDA-MB-435 > 100 µM

Reference: ChEMBL document CHEMBL1201862, “PubChem BioAssay data set” (2004)
